The source of these data is patent publication US20020019527A1 (priority 2000, published 2002).

Counter-ions that a name gives are not always drawn.

The target of data set [1] is T1, Farnesyltransferase (FTase) (Bos taurus, UniProt P29702+P49355).
T1 construct: precipitation from a beef brain homogenate; from tissue; host or cells: bovine brain
Put plainly: Farnesyltransferase inhibition (scintillation proximity assay, [3H]-FPP / biotin-K-ras peptide). It counts as biochemical, bovine. The settings on record: compound at 10^−6 M; bovine FTase, 37° C., 30 minutes. In short, it runs like this: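 Bovine brain FTase, partially purified by 30–50% saturated ammonium sulfate precipitation and DEAE Sepharose chromatography, separated from GGTase I/II. Scintillation proximity read-out of [3H]-FPP transfer to biotin-K-ras peptide, counted 1 h after quench. Compounds added from ethanol with 10-fold dilution into assay.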

Data set [2] is described as follows: Cardiovascular liability test. The protocol: Representative compounds of the instant invention were also tested for cardiovascular liability (see Journal of Cardiovascular Pharmacology, 607-618: 37 (2001)).

T1 sequence (P49355 whole entry, one chain of several): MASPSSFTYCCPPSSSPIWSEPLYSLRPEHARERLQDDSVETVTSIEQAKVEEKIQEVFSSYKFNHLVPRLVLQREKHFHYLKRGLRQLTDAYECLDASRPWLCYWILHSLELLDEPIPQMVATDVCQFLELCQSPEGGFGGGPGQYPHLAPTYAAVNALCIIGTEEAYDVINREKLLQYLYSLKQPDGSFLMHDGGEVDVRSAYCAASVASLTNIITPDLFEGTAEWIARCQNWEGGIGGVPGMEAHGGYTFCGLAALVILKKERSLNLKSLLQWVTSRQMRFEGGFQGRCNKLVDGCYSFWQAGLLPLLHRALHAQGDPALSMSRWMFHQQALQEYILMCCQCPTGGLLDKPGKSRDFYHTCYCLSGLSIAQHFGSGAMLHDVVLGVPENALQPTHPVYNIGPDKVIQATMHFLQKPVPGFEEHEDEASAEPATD

For the compound `Cc1ccccc1-c1cc(C(OCc2ccc(Cl)cc2[N+](=O)[O-])c2cncn2C)ccc1C#N` (stereo not drawn) [Example 164, 5-(((4-chloro-2-nitrobenzyl)oxy)(1-methyl-1H-imidazol-5-yl)methyl)-2′-methyl(1,1′-biphenyl)-2-carbonitrile hydrochloride], 1 µM produced 99% inhibition in data set [1]. As to `N#Cc1ccc(COC(c2ccc(C#N)c(-c3cccc4ccccc34)c2)c2cncs2)nc1` (stereo not drawn) [Example 291, 6-(((4-cyano-3-(1-naphthyl)phenyl)(1,3-thiazol-5-yl)methoxy)methyl)nicotinonitrile], the “electrophysiological profile (cardiovascular liability)” value in data set [2] is recorded as “improved electrophysiological profile”. With `Cc1ccccc1-c1cc(C(OCc2ccccc2)c2cncn2C)ccc1C#N` (stereo not drawn) [Example 11, 5-((benzyloxy)(1-methyl-1H-imidazol-5-yl)methyl)-2′-methyl(1,1′-biphenyl)-2-carbonitrile hydrochloride], the inhibition at 1 µM in data set [1] amounted to 94%. Still for that read-out and setting: as for `Cc1ccccc1-c1cc(C(OCc2cccc(I)c2)c2cncn2C)ccc1C#N` (stereo not drawn) [Example 117, 5-(((3-iodobenzyl)oxy)(1-methyl-1H-imidazol-5-yl)methyl)-2′-methyl(1,1′-biphenyl)-2-carbonitrile hydrochloride], the figure is 90%; as for `Cn1cncc1C(OCc1ccc(F)c(C(F)(F)F)c1)c1ccc(C#N)c(-c2ccccc2C(F)(F)F)c1` (stereo not drawn) [Example 250, 5-(((4-fluoro-3-(trifluoromethyl)benzyl)oxy)(1-methyl-1H-imidazol-5-yl)methyl)-2′-(trifluoromethyl)(1,1′-biphenyl)-2-carbonitrile hydrochloride], 99%. For `Cn1cncc1C(OCc1ncc(C(F)(F)F)cc1Cl)c1ccc(C#N)c(-c2cccc3cccnc23)c1` (stereo not drawn) [Example 246, 4-(((3-chloro-5-(trifluoromethyl)-2-pyridinyl)methoxy)(1-methyl-1H-imidazol-5-yl)methyl)-2-(8-quinolinyl)benzonitrile], the inhibition at 1 µM in data set [1] turned out to be 90%.

For the compound `Cc1ccccc1-c1cc(C(Cn2ccnc2)OCc2ccccc2)ccc1C#N` (stereo not drawn) [Example 210, 5-(1-(benzyloxy)-2-(1H-imidazol-1-yl)ethyl)-2′-methyl(1,1′-biphenyl)-2-carbonitrile hydrochloride], the inhibition at 1 µM in data set [1] amounted to 48%. Still for that read-out and setting: as for `Cn1cncc1C(O)(C#Cc1ccccc1)c1ccc(C#N)c(-c2cccc3ccccc23)c1` (stereo not drawn) [Example 111, 4-(1-hydroxy-1-(1-methyl-1H-imidazol-5-yl)-3-phenyl-2-propynyl)-2-(1-naphthyl)benzonitrile], the figure is 100%. As to `Cn1cncc1CN(Cc1ccccc1)c1ccc(C#N)c(-c2cccc3ccccc23)c1` [Example 232, 4-(benzyl((1-methyl-1H-imidazol-5-yl)methyl)amino)-2-(1-naphthyl)benzonitrile], at 1 µM the inhibition in data set [1] was 100%.

As usually defined, the inhibition is the share of the control response that was lost under treatment. Low values mean little suppression, high ones strong suppression.
